pIC50: −log10 of the molar value.
Legend:
[1] = tested on: Aβ40; test: In vivo efficacy: brain soluble Aβ40 in non-transgenic rodents (MSD electrochemiluminescence multiplex); parameters: species or system mouse; details: dose 30 mg/kg oral dosing, brain soluble fraction, animals sacrificed after 4 h; for response vs control in vivo at 30 mg/kg: Mus musculus, po, 4 h, untreated animals (Ctrl) set at 100, read-out: Aβ40 (% vs Ctrl)_Mean; for Aβ40 (% vs Ctrl)_Mean: untreated animals (Ctrl) set at 100, 30 mg/kg
Excerpt: (§1) To determine whether acute administration of an Aβ42 lowering agent would reduce Aβ42 levels in vivo, non-transgenic rodents, e.g. mice or rats were used. Animals treated with the Aβ42 lowering agent were examined and compared to those untreated or treated with vehicle and brain levels of soluble Aβ42, Aβ40, Aβ38, and Aβ37 were quantitated by Meso Scale Discovery's (MSD) electrochemiluminescence detection technology. Treatment periods varied from hours (h) to days and were adjusted based on the results of the Aβ42 lowering once a time course of onset of effect could be established.
(§2) A typical protocol for measuring Aβ42 lowering in vivo is shown but it is only one of many variations that could be used to optimize the levels of detectable Aβ. For example, Aβ42 lowering compounds were formulated in 20% of Captisol® (a sulfo-butyl ether of β-cyclodextrin) in water or 20% hydroxypropyl βcyclodextrin. The Aβ42 lowering agents were administered as a single oral dose or by any acceptable route of administration to overnight fasted animals. After 4 h, the animals were sacrificed and Aβ42 levels were analysed.
(§3) Blood was collected by decapitation and exsanguinations in EDTA-treated collection tubes. Blood was centrifuged at 1900 g for 10 minutes (min) at 4° C. and the plasma recovered and flash frozen for later analysis. The brain was removed from the cranium and hindbrain. The cerebellum was removed and the left and right hemisphere were separated. The left hemisphere was stored at −18° C. for quantitative analysis of test compound levels. The right hemisphere was rinsed with phosphate-buffered saline (PBS) buffer and immediately frozen on dry ice and stored at −80° C. until homogenization for biochemical assays.
(§4) Mouse brains from non-transgenic animals were resuspended in 8 volumes of 0.4% DEA (diethylamine)/50 mM NaCl containing protease inhibitors (Roche-11873580001 or 04693159001) per gram of tissue, e.g. for 0.158 g brain, add 1.264 ml of 0.4% DEA. All samples were homogenized in the FastPrep-24 system (MP Biomedicals) using lysing matrix D (MPBio #6913-100) at 6 m/s for 20 seconds. Homogenates were centrifuged at 20800×g for 5 min and supernatants collected. Supernatants were centrifuged at 221.300×g for 50 min. The resulting high speed supernatants were then transferred to fresh eppendorf tubes. Nine parts of supernatant were neutralized with 1 part 0.5 M Tris-HCl pH 6.8 and used to quantify Aβ.
(§5) To quantify the amount of Aβ42, Aβ40, Aβ38, and Aβ37 in the soluble fraction of the brain homogenates, simultaneous specific detection of Aβ42, Aβ40, Aβ38, and Aβ37 was performed using MSD's electro-chemiluminescence multiplex detection technology. In this assay purified monoclonal antibodies specific for Abeta37 (JRD/Aβ37/3), Abeta38 (J&JPRD/Aβ38/5), Abeta40 (JRF/cAβ40/28), and Abeta42 (JRF/cAβ42/26) were coated on MSD 4-plex plates. Briefly, the standards (a dilution of synthetic Aβ42, Aβ40, Aβ38, and Aβ37) were prepared in 1.5 ml Eppendorf tube in Ultraculture, with final concentrations ranging from 10000 to 0.3 pg/m. The samples and standards were co-incubated with Sulfo-tag labelled JRF/rAβ/2 antibody to the N-terminus of Aβ as detector antibody. 50 μl of conjugate/sample or conjugate/standards mixtures were then added to the antibody-coated plate. The plate was allowed to incubate overnight at 4° C. in order to allow formation of the antibody-amyloid complex. Following this incubation and subsequent wash steps the assay was finished by adding read buffer according to the manufacturer's instructions (Meso Scale Discovery, Gaitherburg, Md.).
(§6) The SULFO-TAG emits light upon electrochemical stimulation initiated at the electrode. MSD Sector instrument SI6000 was used for signal read-out.
The results are shown in Table 5 (dose 30 mg/kg oral dosing) (value for untreated animals as control (Ctrl) was set at 100): […]

[2] = tested on: Aβ42; test: In vivo efficacy: brain soluble Aβ42 in non-transgenic rodents (MSD electrochemiluminescence multiplex); parameters: species or system mouse; details: dose 30 mg/kg oral dosing, brain soluble fraction, animals sacrificed after 4 h; for response vs control in vivo at 30 mg/kg: Mus musculus, po, 4 h, untreated animals (Ctrl) set at 100, read-out: Aβ42 (% vs Ctrl)_Mean
Excerpt: as §1, §2, §3, §4, §5, §6
In this model a Aβ42 lowering compared to untreated animals would be advantageous, in particular a Aβ42 lowering with at least 10%, more in particular a Aβ42 lowering with at least 20%. […]

[3] = biological target: T1, γ-secretase (Homo sapiens, UniProt P49768); test: Screening for γ-secretase-modulating activity: Aβ42 in supernatant of SKNBE2 cells carrying hAPP 695 wild type (Alphalisa); format: cell-based; details: SKNBE2 human neuroblastoma cells carrying hAPP 695 wild type, overnight incubation, Aβ42 in cell supernatant
T1 construct: endogenous in cells; host or cells: SKNBE2 human neuroblastoma cells (carrying hAPP 695 wild type as substrate)
Procedure, shortened: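 SKNBE2 neuroblastoma cells expressing wild-type hAPP 695 plated at 10^4 cells/well in Ultraculture with test compound, incubated overnight at 37° C. Aβ42 (C-terminal/N-terminal antibody pair) and Aβtotal (N-terminal/4G8 pair) in supernatant quantified by AlphaLISA. IC50 from 4-parameter fit of percent of compound-free control.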

| pIC50 [3] | Compound | response vs control in vivo at 30 mg/kg [1] [%] | response vs control in vivo at 30 mg/kg [2] [%] | Aβ40 (% vs Ctrl)_Mean [1] [% vs Ctrl] | Aβ42 (% vs Ctrl)_Mean ([2]; untreated animals (Ctrl) set at 100, 30 mg/kg) [% vs Ctrl] |
| --- | --- | --- | --- | --- | --- |
| 7.22 | Cc1cn(-c2ccc3n(c2=O)C[C@@H](C)N(Cc2cc(N4CCOC(C(F)(F)F)C4)cc(C(F)(F)F)c2)C3=O)cn1 (mixture of isomers) [compound 153] | 128 | 100 | – | – |
| 6.85 | Cc1cn(-c2ccc3n(c2=O)CCN(C(C)c2cccc(Cl)c2Cl)C3=O)cn1 (single isomer, unassigned) [10a] | – | – | – | – |
| 7.15 | Cc1cn(-c2ccc3n(c2=O)CC(C)N(C(C)c2cc(C(F)(F)F)cc(C(F)(F)F)c2)C3=O)cn1.Cl (single isomer, unassigned) [compound 111] | – | 35 | 52 | – |
| 7.15 | Cc1cn(-c2ccc3n(c2=O)CC(C)N(C(C)c2cc(C(F)(F)F)cc(C(F)(F)F)c2)C3=O)cn1.Cl (single isomer, unassigned) [compound 112] | – | – | 82 | 55 |
| 6.96 | CCC(c1cc(OC)cc(C(F)(F)F)c1)N1C(=O)c2ccc(-n3cnc(C)c3)c(=O)n2C[C@H]1C (single isomer, unassigned) [compound 141] | 122 | 85 | – | – |
| 7.22 | CCOc1cc(C(C)N2C(=O)c3ccc(-n4cnc(C)c4)c(=O)n3C[C@H]2C)cc(C(F)(F)F)c1 (single isomer, unassigned) [compound 143] | 129 | 123 | – | – |
| 7.52 | Cc1cn(-c2ccc3n(c2=O)CCN(C(C)c2c[nH]c4cc(F)c(Cl)cc24)C3=O)cn1 (single isomer, unassigned) [compound 183] | 133 | 97 | – | – |
| 7.70 | Cc1cn(-c2ccc3n(c2=O)CCN(C(C)c2cn(C)c4cc(F)c(Cl)cc24)C3=O)cn1 (single isomer, unassigned) [compound 185] | 89 | 68 | – | – |
| 6.66 | Cc1cn(-c2ccc3n(c2=O)CC(C)N(C(C)c2cn(C)c4cc(F)c(Cl)cc24)C3=O)cn1 (single isomer, unassigned) [compound 189] | 118 | 116 | – | – |
| 8.00 | CCn1cc(C(C)N2C(=O)c3ccc(-n4cnc(C)c4)c(=O)n3CC2C)c2cc(Cl)c(F)cc21 (single isomer, unassigned) [compound 192] | 44 | 39 | – | – |
| 8.00 | Cc1cn(-c2ccc3n(c2=O)CC(C)N(C(C)c2cn(C(C)C)c4cc(F)c(Cl)cc24)C3=O)cn1 (single isomer, unassigned) [compound 194] | 43 | 39 | – | – |
| 7.70 | Cc1cn(-c2ccc3n(c2=O)CC(C)N(C(C)c2c[nH]c4c(F)cc(Cl)cc24)C3=O)cn1 (single isomer, unassigned) [compound 219] | 95 | 76 | – | – |
| 6.96 | CCC1Cn2c(ccc(-n3cnc(C)c3)c2=O)C(=O)N1Cc1cc(C(F)(F)F)cc(C(F)(F)F)c1.Cl (stereo not shown) [compound 1] | – | – | – | – |
| 6.77 | Cc1cn(-c2ccc3n(c2=O)C[C@@H](C)N(Cc2ccc(Cl)c(Cl)c2)C3=O)cn1 [compound 2] | – | – | – | – |
| 7.00 | Cc1cn(-c2ccc3n(c2=O)CC(C)N(Cc2cc(C(F)(F)F)cc(C(F)(F)F)c2)C3=O)cn1 (stereo not shown) [compound 3] | 85 | 51 | – | – |
| 7.10 | Cc1cn(-c2ccc3n(c2=O)CCN(Cc2cccc(-c4ccccc4)c2)C3=O)cn1 [compound 5] | – | – | – | – |
| 7.15 | Cc1cn(-c2ccc3n(c2=O)CC(C)N(Cc2cc(OCC4CC4)cc(C(F)(F)F)c2)C3=O)cn1.Cl (stereo not shown) [compound 6] | 108 | 73 | – | – |

| pIC50 [3] | Compound | response vs control in vivo at 30 mg/kg [1] [%] | response vs control in vivo at 30 mg/kg [2] [%] | Aβ40 (% vs Ctrl)_Mean [1] [% vs Ctrl] | Aβ42 (% vs Ctrl)_Mean ([2]; untreated animals (Ctrl) set at 100, 30 mg/kg) [% vs Ctrl] |
| --- | --- | --- | --- | --- | --- |
| 6.85 | CCc1cn(-c2ccc3n(c2=O)CC(C)N(Cc2cc(C(F)(F)F)cc(C(F)(F)F)c2)C3=O)cn1.Cl (stereo not shown) [compound 7] | – | – | – | – |
| 5.59 | Cc1cn(-c2ccc3n(c2=O)CCN(Cc2ccccc2C)C3=O)cn1 [compound 22] | – | – | – | – |
| 6.85 | Cc1cn(-c2ccc3n(c2=O)C[C@@H](C)N(Cc2cccc(C(C)(C)C)c2)C3=O)cn1 [compound 23] | – | – | – | – |
| 6.85 | Cc1cn(-c2ccc3n(c2=O)C[C@@H](C)N(Cc2ccc(C(F)(F)F)c(C(F)(F)F)c2)C3=O)cn1 [compound 46] | – | – | – | – |
| 7.40 | Cc1cn(-c2ccc3n(c2=O)C[C@@H](C)N(CCc2cc(C(F)(F)F)cc(C(F)(F)F)c2)C3=O)cn1 [compound 50] | 112 | 99 | – | – |
| 6.74 | Cc1cc(CN2C(=O)c3ccc(-n4cnc(C)c4)c(=O)n3C[C@H]2C)cc(C(F)(F)F)c1 [compound 59] | – | – | – | – |
| 6.89 | Cc1cn(-c2ccc3n(c2=O)C[C@@H](C)N(Cc2ccc(Cl)c(C(F)(F)F)c2)C3=O)cn1 [compound 62] | – | – | – | – |
| 6.72 | Cc1cn(-c2ccc3n(c2=O)C[C@@H](C)N(Cc2cc(Cl)cc(C(F)(F)F)c2)C3=O)cn1 [compound 63] | – | – | – | – |
| 6.43 | Cc1cn(-c2ccc3n(c2=O)CCN(Cc2ccc(Cl)c(C(F)(F)F)c2)C3=O)cn1 [compound 65] | – | – | – | – |
| 7.00 | Cc1cn(-c2ccc3n(c2=O)C[C@@H](C)N(Cc2cc(N4CCC(C)CC4)ccc2Cl)C3=O)cn1 [compound 80] | 164 | 148 | – | – |
| 6.96 | Cc1cn(-c2ccc3n(c2=O)C[C@@H](C)N(Cc2cc(N4CCCC4)ccc2Cl)C3=O)cn1 [compound 82] | 125 | 103 | – | – |
| 6.77 | Cc1cn(-c2ccc3n(c2=O)CCN(Cc2ccc(C)c(N4CCCCC4)c2)C3=O)cn1 [compound 99] | – | – | – | – |
| 7.40 | Cc1cn(-c2ccc3n(c2=O)C[C@@H](C)N(Cc2cc(CC4CC4)cc(C(F)(F)F)c2)C3=O)cn1 [compound 110] | 103 | 88 | – | – |
| 7.10 | Cc1cn(-c2ccc3n(c2=O)C[C@@H](C)N(Cc2cc(C4CC4)cc(C(F)(F)F)c2)C3=O)cn1 [compound 116] | 105 | 75 | – | – |
| 6.72 | C[C@@H]1Cn2c(ccc(-n3cnc(Cl)c3)c2=O)C(=O)N1Cc1cc(C(F)(F)F)cc(C(F)(F)F)c1 [compound 118] | 115 | 92 | – | – |
| 7.05 | Cc1cn(-c2ccc3n(c2=O)C[C@@H](C)N(Cc2cc(OC(C)C)nc(C(F)(F)F)c2)C3=O)cn1 [compound 128] | 116 | 60 | – | – |

From patent publication US20150141411A1, “SUBSTITUTED 3,4-DIHYDRO-2H-PYRIDO[1,2-A]PYRAZINE-1,6-DIONE DERIVATIVES USEFUL FOR THE TREATMENT OF (INTER ALIA) ALZHEIMER'S DISEASE” (Janssen Pharmaceuticals, Inc., priority 2012, published 2015)
